The results in this text go back to paper PMC12775434, “Ultra-large virtual screening unveils potent agonists of the neuromodulatory orphan receptor GPR139” (Nature Communications, 2025).

Several values for one entry are separate records, joined by “and”; a condition that tells them apart may be missing. Identical values can stand only once.

What all share (format): cell-based
Assay [1] concerns the target T1, GPR139 (Homo sapiens, UniProt Q6DWJ6).
T1 sequence (Q6DWJ6 1-353): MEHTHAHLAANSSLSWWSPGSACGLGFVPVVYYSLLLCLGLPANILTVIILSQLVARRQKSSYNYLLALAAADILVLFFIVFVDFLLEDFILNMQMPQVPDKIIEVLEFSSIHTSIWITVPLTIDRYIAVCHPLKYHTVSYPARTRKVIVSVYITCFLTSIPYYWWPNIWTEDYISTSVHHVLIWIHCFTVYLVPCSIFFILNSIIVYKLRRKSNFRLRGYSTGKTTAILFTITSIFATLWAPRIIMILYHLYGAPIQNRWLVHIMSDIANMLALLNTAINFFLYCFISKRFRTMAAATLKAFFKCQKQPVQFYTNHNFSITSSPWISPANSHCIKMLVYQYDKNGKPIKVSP
Description: Ca2+ mobilization assay, agonist mode, stable GPR139-CHOk1 cell line. The following applies: for EC50 / Emax: Supplementary Table 2, mean ± SEM; for EC50: read-out: pEC50 Ca2+ (converted); for Emax: normalized to Lundbeck Cmp 1a, read-out: Emax (%) Ca2+. In a few lines:
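Agonist activity of compounds is assessed in stably transfected CHO-K1 cells using the calcium dye Fluo-4 at 37 °C in HEPES-buffered HBSS (pH 7.4). Efficacy is expressed relative to the reference agonist Lundbeck Cmp 1a, set as 100%.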

Assay [2] concerns the target T1, GPR139. Description: Ca2+ mobilization assay, antagonist mode (EC80 800 nM Lundbeck Cmp 1a after 20 min preincubation), GPR139-CHOk1. The following applies: individual replicates (Supplementary Figure 4). The procedure, abridged:
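Fluo-4-loaded GPR139-CHOk1 cells in HEPES-buffered HBSS (pH 7.4, 2.5 mM probenecid) given test compounds at 10 µM, then after 20 min challenged with 800 nM Lundbeck Cmp 1a (EC80). Calcium fluorescence read at 37 °C, 485/525 nm.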
Background: A change in cytosolic calcium serves as a functional read-out for many receptors and channels.

Assay [3] has as its target T2, human muscarinic acetylcholine M1 receptor (M1R) (Homo sapiens, UniProt P11229).
T2 sequence (P11229 1-460): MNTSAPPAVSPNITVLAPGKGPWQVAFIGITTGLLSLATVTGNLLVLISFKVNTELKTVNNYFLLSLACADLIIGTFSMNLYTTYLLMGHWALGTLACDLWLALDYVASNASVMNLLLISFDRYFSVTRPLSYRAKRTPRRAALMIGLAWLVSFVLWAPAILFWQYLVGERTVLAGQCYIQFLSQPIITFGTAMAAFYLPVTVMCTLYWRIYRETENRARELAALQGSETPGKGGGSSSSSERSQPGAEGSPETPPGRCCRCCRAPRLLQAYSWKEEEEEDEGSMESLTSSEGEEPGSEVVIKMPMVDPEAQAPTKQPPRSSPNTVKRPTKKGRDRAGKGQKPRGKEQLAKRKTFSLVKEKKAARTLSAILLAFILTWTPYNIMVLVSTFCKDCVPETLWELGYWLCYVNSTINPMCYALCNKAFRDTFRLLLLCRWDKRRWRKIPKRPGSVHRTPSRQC
Description: Ca2+ mobilization counter-screen in M1R-CHOk1 cells. Conditions: individual replicates (Supplementary Figure 5). In a few lines: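 Intracellular calcium is tracked by Fluo-4 fluorescence at 37 °C in M1R-CHOk1 cells, with compounds dispensed automatically once baseline is taken. Buffer is HBSS with 20 mM HEPES, pH 7.4, plus 2.5 mM probenecid.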

The mark [4] stands for this setting: Agonist mode, individual replicates (Supplementary Figure 4).
Setting [5] is: log [Compound] M = -4.5, individual replicate columns.
Where [6] appears, read: log [Compound] M = -5.0, individual replicate columns.
Where [7] appears, read: log [Compound] M = -5.5, individual replicate columns.
Where [8] appears, read: log [Compound] M = -6.0, individual replicate columns.
The mark [9] stands for this setting: log [Compound] M = -6.5, individual replicate columns.
Setting [10] is: log [Compound] M = -7.0, individual replicate columns.
[11] abbreviates: log [Compound] M = -7.5, individual replicate columns.
Setting [12] is: log [Compound] M = -8.0, individual replicate columns.
The mark [13] stands for this setting: log [Compound] M = -8.5, individual replicate columns.
Where [14] appears, read: log [Compound] M = -9.0, individual replicate columns.

By Emax is commonly meant the size of the effect at its maximum, as opposed to the concentration needed. As for `CCc1ccc(-c2nc(CC(=O)NC(C)c3ccccc3)no2)s1` (centres unmarked) [Compound 1.12, CCC1=CC=C(C2=NC(CC(NC(C3=CC=CC=C3)C)=O)=NO2)S1], the “Ca2+ signal (% of Cmp 1a)” value in assay [1] (setting [4]) was 86 % of Cmp 1a and 84 % of Cmp 1a and 95 % of Cmp 1a; in assay [1] (setting [5]), 90 % of Cmp 1a and 89 % of Cmp 1a and 81 % of Cmp 1a and 78 % of Cmp 1a; in assay [1] (setting [6]), 105 % of Cmp 1a and 80 % of Cmp 1a and 63 % of Cmp 1a and 94 % of Cmp 1a; in assay [1] (setting [7]), 111 % of Cmp 1a (2×) and 80 % of Cmp 1a and 55 % of Cmp 1a; in assay [1] (setting [8]), 66 % of Cmp 1a and 61 % of Cmp 1a and 43 % of Cmp 1a and 78 % of Cmp 1a; in assay [1] (setting [9]), 49 % of Cmp 1a and 48 % of Cmp 1a and 28 % of Cmp 1a and 56 % of Cmp 1a. The “Ca2+ signal (% of Cmp 1a)” value in assay [1] (setting [10]) is 21 % of Cmp 1a and 33 % of Cmp 1a and 9 % of Cmp 1a and 38 % of Cmp 1a; in assay [1] (setting [11]), 6 % of Cmp 1a and 10 % of Cmp 1a and 3.55 % of Cmp 1a and 24 % of Cmp 1a; in assay [1] (setting [12]) it was -0.628 % of Cmp 1a and 0.281 % of Cmp 1a and 16 % of Cmp 1a and 5 % of Cmp 1a; in assay [1] (setting [13]), -1.24 % of Cmp 1a and 1.81 % of Cmp 1a and 5 % of Cmp 1a and 9 % of Cmp 1a; in assay [1] (setting [14]) it was 6.67 % of Cmp 1a and -5 % of Cmp 1a and 1.66 % of Cmp 1a and 6 % of Cmp 1a; in assay [2], 15 % of Cmp 1a and 8 % of Cmp 1a and -3.33 % of Cmp 1a. The “change in potency with larger substituents on the thiophene ring” value in assay [1] (Ca2+ mobilization) is “three-fold reduction to a complete loss of activity”. For the same molecule, the EC50 in assay [1] is 398 nM. Also, the Emax in assay [1] was determined as 93 ± 4%. Further, the “Ca2+ signal (% of Carbachol)” value in assay [3] was 8 % of Carbachol and 5.44 % of Carbachol and 4 % of Carbachol.
Consider `Cc1cc(-c2nc(CC(=O)NC(C)c3ccccc3)no2)ns1` (centres unmarked) [Compound 1.43, CC(NC(=O)CC1=NOC(=N1)C=2C=C(C)SN2)C=3C=CC=CC3], for which the “Ca2+ signal (% of Cmp 1a)” value in assay [1] (setting [4]) was 63 % of Cmp 1a and 81 % of Cmp 1a and 86 % of Cmp 1a; in assay [1] (setting [5]) it was 114 % of Cmp 1a and 107 % of Cmp 1a and 84 % of Cmp 1a; in assay [1] (setting [6]), 92 % of Cmp 1a and 86 % of Cmp 1a and 81 % of Cmp 1a; in assay [1] (setting [7]), 82 % of Cmp 1a and 55 % of Cmp 1a and 100 % of Cmp 1a; in assay [1] (setting [8]), 35 % of Cmp 1a and 11 % of Cmp 1a and 48 % of Cmp 1a; in assay [1] (setting [9]), 14 % of Cmp 1a and -6.32 % of Cmp 1a and 5 % of Cmp 1a. The “Ca2+ signal (% of Cmp 1a)” value in assay [1] (setting [10]) was -6 % of Cmp 1a and 6 % of Cmp 1a and -11 % of Cmp 1a; in assay [1] (setting [11]), 0.152 % of Cmp 1a and 7 % of Cmp 1a and -5.32 % of Cmp 1a; in assay [1] (setting [12]) it was 0.817 % of Cmp 1a and 5 % of Cmp 1a and 7 % of Cmp 1a; in assay [1] (setting [13]), -1.79 % of Cmp 1a and -1.64 % of Cmp 1a and 0.136 % of Cmp 1a; in assay [1] (setting [14]), 1.86 % of Cmp 1a and -3 % of Cmp 1a and -0.513 % of Cmp 1a; in assay [2], 4.33 % of Cmp 1a and 17 % of Cmp 1a and 5 % of Cmp 1a. Further, the “fold decrease in potency relative to parent compound 1” value in assay [1] (Ca2+ mobilization EC50) is listed as 3- to 25 fold. For the same molecule, the EC50 in assay [1] is 1580 nM. Moreover, the Emax in assay [1] was determined as 102 ± 7%. In addition, in assay [3], the “Ca2+ signal (% of Carbachol)” value is -0.351 % of Carbachol and 1.19 % of Carbachol and 1.15 % of Carbachol.
